# Assay results taken from patent publication US10376520B2, “Methods for the treatment of cardiovascular disorders” (Galapagos NV, priority 2015, dated 2019).
# Test system: RA patients
# Assay: [HDL] determination, Study 1 (RA patients, add-on to MTX)
# Assay type: in vivo, human
# Experimental: Double-blind, placebo-controlled add on study in subjects with moderately to severely active RA who have an inadequate response to methotrexate (MTX) (oral or parenteral).
# 595 subjects randomized to one of 6 dose regimens of Compound 1 (dosed as a [Compound 1:HCl:3H2O]) (3 dose levels administered either once or twice daily) or placebo on top of each subject's stable dose of MTX.
# Compound 1 (dosed as a [Compound 1:HCl:3H2O]) is dosed for twelve weeks once daily (q.d.) (50 mg, 100 mg or 200 mg) or twice daily (b.i.d.) (25 mg, 50 mg or 100 mg); or placebo.
# At Week 12, the subjects on placebo who have not achieved 20% improvement in swollen joint count (SJC66) and tender joint count (TJC68) are re-randomized automatically to receive Compound 1 (dosed as a [Compound 1:HCl:3H2O]) either at 100 mg q.d. or 50 mg b.i.d. doses in a blinded fashion; subjects on 50 mg q.d. who have not achieved 20% improvement in SJC66 and TJC68 will be assigned to 100 mg q.d. and subjects on 25 mg b.i.d. that have not achieved a 20% improvement in SJC66 and TJC68 will be assigned to 50 mg b.i.d. Subjects who switch treatment at week 12 are handled as if they discontinued at week 12 for the purpose of statistical analysis, whereas subjects in the other groups will maintain their randomized treatment until Week 24.
# This assay relies on a homogeneous enzymatic colorimetric test. In the presence of magnesium ions, dextran sulfate selectively forms water-soluble complexes with LDL, VLDL and chylomicrons which are resistant to PEG-modified enzymes.
# The cholesterol concentration of [HDL]-cholesterol is determined enzymatically by cholesterol esterase and cholesterol oxidase coupled with PEG to the amino groups (approx. 40%).
# In the presence of peroxidase, the hydrogen peroxide generated reacts with 4-amino-antipyrine and Sodium N-(2-hydroxy-3-sulfopropyl)-3,5-dimethoxyaniline (HSDA) to form a purple-blue dye. The color intensity of this dye is directly proportional to the cholesterol concentration and is measured photometrically.
# Human serum and plasma samples [HDL] determination was done on a Roche/Hitachi Cobas c 701/702 system which automatically calculate the analyte concentration of each sample. Samples containing precipitates are centrifuged before performing the assay.
# [1] = continued 200 mg q.d. (N = 86), week 4
# [2] = continued 200 mg q.d. (N = 86), week 8
# [3] = continued 200 mg q.d. (N = 86), week 12
# [4] = continued 200 mg q.d. (N = 86), week 16
# [5] = continued 200 mg q.d. (N = 86), week 20
# [6] = continued 200 mg q.d. (N = 86), week 24
# [7] = from 25 mg b.i.d. to 50 mg b.i.d at 12 weeks (N = 17), week 1
# [8] = from 25 mg b.i.d. to 50 mg b.i.d at 12 weeks (N = 17), week 2
# [9] = from 25 mg b.i.d. to 50 mg b.i.d at 12 weeks (N = 17), week 4
# [10] = from 25 mg b.i.d. to 50 mg b.i.d at 12 weeks (N = 17), week 8
# [11] = from 25 mg b.i.d. to 50 mg b.i.d at 12 weeks (N = 17), week 12
# [12] = from 25 mg b.i.d. to 50 mg b.i.d at 12 weeks (N = 17), week 24
# [13] = from 50 mg q.d. to 100 mg q.d. at 12 weeks (N = 19), week 1
# [14] = from 50 mg q.d. to 100 mg q.d. at 12 weeks (N = 19), week 2
# [15] = from 50 mg q.d. to 100 mg q.d. at 12 weeks (N = 19), week 4
# [16] = from 50 mg q.d. to 100 mg q.d. at 12 weeks (N = 19), week 8
# [17] = from 50 mg q.d. to 100 mg q.d. at 12 weeks (N = 19), week 12
# [18] = from 50 mg q.d. to 100 mg q.d. at 12 weeks (N = 19), week 16
# [19] = from 50 mg q.d. to 100 mg q.d. at 12 weeks (N = 19), week 20
# [20] = from 50 mg q.d. to 100 mg q.d. at 12 weeks (N = 19), week 24
# [21] = placebo switched to 50 mg b.i.d at week 12 (N = 15), week 16
# [22] = placebo switched to 50 mg b.i.d at week 12 (N = 15), week 20
# [23] = placebo switched to 50 mg b.i.d at week 12 (N = 15), week 24
smiles,measurement,setting,value
"O=C(Nc1nc2cccc(-c3ccc(CN4CCS(=O)(=O)CC4)cc3)n2n1)C1CC1 [Compound 1, cyclopropanecarboxylic acid {5-[4-(1,1-dioxo-thiomorpholin-4-ylmethyl)-phenyl]-[1,2,4]triazolo[1,5-a]pyridin-2yl}-amide]",[HDL] Mean percentage CFB - 24 weeks results,[1],19.85%
same,[HDL] Median CFB - 24 weeks results,[1],0.25 mmol/L
same,[HDL] Mean CFB - 24 weeks results,[2],0.29 mmol/L
same,[HDL] Mean percentage CFB - 24 weeks results,[2],21.85%
same,[HDL] Median CFB - 24 weeks results,[2],0.30 mmol/L
same,[HDL] Mean CFB - 24 weeks results,[3],0.27 mmol/L
same,[HDL] Mean percentage CFB - 24 weeks results,[3],21.24%
same,[HDL] Median CFB - 24 weeks results,[3],0.26 mmol/L
same,[HDL] Mean CFB - 24 weeks results,[4],0.27 mmol/L
same,[HDL] Mean percentage CFB - 24 weeks results,[4],21.14%
same,[HDL] Median CFB - 24 weeks results,[4],0.23 mmol/L
same,[HDL] Mean CFB - 24 weeks results,[5],0.30 mmol/L
same,[HDL] Mean percentage CFB - 24 weeks results,[5],24.27%
same,[HDL] Median CFB - 24 weeks results,[5],0.30 mmol/L
same,[HDL] Mean CFB - 24 weeks results,[6],0.26 mmol/L
same,[HDL] Mean percentage CFB - 24 weeks results,[6],20.78%
same,[HDL] Median CFB - 24 weeks results,[6],0.25 mmol/L
same,[HDL] Mean CFB - 24 weeks results,[7],-0.05 mmol/L
same,[HDL] Mean percentage CFB - 24 weeks results,[7],−1.35%
same,[HDL] Median CFB - 24 weeks results,[7],-0.01 mmol/L
same,[HDL] Mean CFB - 24 weeks results,[8],0.03 mmol/L
same,[HDL] Mean percentage CFB - 24 weeks results,[8],4.08%
same,[HDL] Median CFB - 24 weeks results,[8],0.05 mmol/L
same,[HDL] Mean CFB - 24 weeks results,[9],-0.01 mmol/L
same,[HDL] Mean percentage CFB - 24 weeks results,[9],1.09%
same,[HDL] Median CFB - 24 weeks results,[9],0.00 mmol/L
same,[HDL] Mean CFB - 24 weeks results,[10],-0.02 mmol/L
same,[HDL] Mean percentage CFB - 24 weeks results,[10],0.59%
same,[HDL] Median CFB - 24 weeks results,[10],0.05 mmol/L
same,[HDL] Mean CFB - 24 weeks results,[11],0.04 mmol/L
same,[HDL] Mean percentage CFB - 24 weeks results,[11],5.55%
same,[HDL] Median CFB - 24 weeks results,[11],0.00 mmol/L
same,[HDL] Mean percentage CFB - 24 weeks results,"from 25 mg b.i.d. to 50 mg b.i.d at 12 weeks (N = 17), week 16",7.37%
same,[HDL] Mean percentage CFB - 24 weeks results,"from 25 mg b.i.d. to 50 mg b.i.d at 12 weeks (N = 17), week 20",1.50%
same,[HDL] Mean CFB - 24 weeks results,[12],0.10 mmol/L
same,[HDL] Mean percentage CFB - 24 weeks results,[12],8.10%
same,[HDL] Median CFB - 24 weeks results,[12],0.17 mmol/L
same,[HDL] Mean CFB - 24 weeks results,[13],0.02 mmol/L
same,[HDL] Mean percentage CFB - 24 weeks results,[13],2.29%
same,[HDL] Median CFB - 24 weeks results,[13],0.00 mmol/L
same,[HDL] Mean CFB - 24 weeks results,[14],0.10 mmol/L
same,[HDL] Mean percentage CFB - 24 weeks results,[14],6.63%
same,[HDL] Median CFB - 24 weeks results,[14],0.07 mmol/L
same,[HDL] Mean CFB - 24 weeks results,[15],0.07 mmol/L
same,[HDL] Mean percentage CFB - 24 weeks results,[15],5.26%
same,[HDL] Median CFB - 24 weeks results,[15],0.06 mmol/L
same,[HDL] Mean CFB - 24 weeks results,[16],0.05 mmol/L
same,[HDL] Mean percentage CFB - 24 weeks results,[16],5.77%
same,[HDL] Median CFB - 24 weeks results,[16],0.09 mmol/L
same,[HDL] Mean CFB - 24 weeks results,[17],-0.02 mmol/L
same,[HDL] Mean percentage CFB - 24 weeks results,[17],2.41%
same,[HDL] Median CFB - 24 weeks results,[17],-0.05 mmol/L
same,[HDL] Mean CFB - 24 weeks results,[18],0.18 mmol/L
same,[HDL] Mean percentage CFB - 24 weeks results,[18],11.43%
same,[HDL] Median CFB - 24 weeks results,[18],0.15 mmol/L
same,[HDL] Mean CFB - 24 weeks results,[19],0.13 mmol/L
same,[HDL] Mean percentage CFB - 24 weeks results,[19],8.89%
same,[HDL] Median CFB - 24 weeks results,[19],0.20 mmol/L
same,[HDL] Mean CFB - 24 weeks results,[20],0.11 mmol/L
same,[HDL] Mean percentage CFB - 24 weeks results,[20],8.29%
same,[HDL] Median CFB - 24 weeks results,[20],0.11 mmol/L
same,[HDL] Mean CFB - 24 weeks results,[21],0.08 mmol/L
same,[HDL] Mean percentage CFB - 24 weeks results,[21],10.96%
same,[HDL] Median CFB - 24 weeks results,[21],0.18 mmol/L
same,[HDL] Mean CFB - 24 weeks results,[22],0.10 mmol/L
same,[HDL] Mean percentage CFB - 24 weeks results,[22],12.63%
same,[HDL] Median CFB - 24 weeks results,[22],0.21 mmol/L
same,[HDL] Mean CFB - 24 weeks results,[23],0.10 mmol/L
same,[HDL] Mean percentage CFB - 24 weeks results,[23],10.63%
same,[HDL] Median CFB - 24 weeks results,[23],0.10 mmol/L
same,[HDL] Mean percentage CFB - 24 weeks results,"placebo switched to 100 mg q.d. at week 12 (N = 15), week 16",−0.14%
same,[HDL] Mean percentage CFB - 24 weeks results,"placebo switched to 100 mg q.d. at week 12 (N = 15), week 20",0.95%
same,[HDL] Mean percentage CFB - 24 weeks results,"placebo switched to 100 mg q.d. at week 12 (N = 15), week 24",0.14%
